Laboratory results published in the supplement of paper PMC10307832.

Assays:
Experiment in all cases: relative viability (nuclei count vs DMSO), 5 days (fraction); higher = more cells survive
AZ505 + Foretinib = compound: C1CCC(CC1)N(CCNCCC2=C3C(=C(C=C2)O)NC(=O)CO3)C(=O)CCNCCC4=CC(=C(C=C4)Cl)Cl [AZ505] + COc1cc2c(Oc3ccc(NC(=O)C4(C(=O)Nc5ccc(F)cc5)CC4)cc3F)ccnc2cc1OCCCN1CCOCC1 [Foretinib] (partner 0.25 µM)
In short: (§1)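 Lung cancer cell lines were seeded in 1536-well plates and dosed by pin tool the next day, with either a single drug or a fixed anchor-drug dose combined with five library-drug doses (not always all listed) spaced in √10 steps. Five days later, one step fixed the cells and stained their nuclei (final 0.05% Triton X-100, 1% formaldehyde, 1 ug/ml Hoechst), and nuclei were counted on 4× images. Relative viability is the nuclei count in treated wells divided by the count in vehicle wells, and each value is the median of duplicate plates.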

AZ505 + Decitabine = compound: C1CCC(CC1)N(CCNCCC2=C3C(=C(C=C2)O)NC(=O)CO3)C(=O)CCNCCC4=CC(=C(C=C4)Cl)Cl [AZ505] + Nc1ncn([C@H]2C[C@H](O)[C@@H](CO)O2)c(=O)n1 [Decitabine] (partner 2 µM)
In short: as §1

Dactolisib + Decitabine = compound: Cn1c(=O)n(-c2ccc(C(C)(C)C#N)cc2)c2c3cc(-c4cnc5ccccc5c4)ccc3ncc21 [Dactolisib] + Nc1ncn([C@H]2C[C@H](O)[C@@H](CO)O2)c(=O)n1 [Decitabine] (partner 2 µM)
In short: as §1

Dactolisib + Navitoclax = compound: Cn1c(=O)n(-c2ccc(C(C)(C)C#N)cc2)c2c3cc(-c4cnc5ccccc5c4)ccc3ncc21 [Dactolisib] + CC1(C)CCC(c2ccc(Cl)cc2)=C(CN2CCN(c3ccc(C(=O)NS(=O)(=O)c4ccc(N[C@H](CCN5CCOCC5)CSc5ccccc5)c(S(=O)(=O)C(F)(F)F)c4)cc3)CC2)C1 [Navitoclax] (partner 0.5 µM)
In short: as §1

Cell Line | relative viability (AZ505 + Foretinib; first compound 0.08 µM) | relative viability (AZ505 + Foretinib; first compound 0.253 µM) | relative viability (AZ505 + Foretinib; first compound 0.8 µM) | relative viability (AZ505 + Foretinib; first compound 2.53 µM) | relative viability (AZ505 + Foretinib; first compound 8 µM) | relative viability (AZ505 + Decitabine; first compound 0.08 µM) | relative viability (AZ505 + Decitabine; first compound 0.253 µM) | relative viability (AZ505 + Decitabine; first compound 0.8 µM) | relative viability (AZ505 + Decitabine; first compound 2.53 µM) | relative viability (AZ505 + Decitabine; first compound 8 µM) | relative viability (Dactolisib + Decitabine; first compound 0.002 µM) | relative viability (Dactolisib + Decitabine; first compound 0.006325 µM) | relative viability (Dactolisib + Decitabine; first compound 0.02 µM) | relative viability (Dactolisib + Decitabine; first compound 0.06325 µM) | relative viability (Dactolisib + Decitabine; first compound 0.2 µM) | relative viability (Dactolisib + Navitoclax; first compound 0.002 µM) | relative viability (Dactolisib + Navitoclax; first compound 0.006325 µM) | relative viability (Dactolisib + Navitoclax; first compound 0.02 µM) | relative viability (Dactolisib + Navitoclax; first compound 0.06325 µM) | relative viability (Dactolisib + Navitoclax; first compound 0.2 µM)
PC-14 | 0.922 | 0.927 | 1.03 | 1.01 | 0.937 | 0.2 | 0.261 | 0.272 | 0.192 | 0.258 | 0.333 | 0.222 | 0.261 | 0.161 | 0.138 | 1.09 | 1.06 | 1.06 | 0.329 | 0.432
NCI-H2347 | – | 0.743 | 0.719 | – | 1.04 | 0.545 | 0.572 | 0.511 | 0.461 | 0.505 | 0.682 | 0.581 | 0.62 | 0.541 | 0.473 | 0.928 | 0.746 | 0.729 | 0.308 | 0.271
NCI-H1793 | 0.627 | 0.735 | 0.758 | – | 0.572 | 0.588 | 0.506 | 0.454 | 0.544 | 0.549 | 0.454 | 0.319 | 0.266 | 0.231 | 0.172 | 0.372 | 0.416 | 0.272 | 0.184 | 0.159
EKVX | 0.586 | 0.801 | 0.827 | 0.433 | 0.75 | – | 0.35 | 0.318 | 0.349 | 0.349 | 0.343 | 0.313 | 0.284 | 0.272 | 0.22 | 0.961 | 0.98 | 0.815 | 0.782 | 0.346
HOP-62 | 1.06 | 1.13 | 1.03 | 1.08 | 1.13 | 0.21 | 0.221 | 0.259 | 0.205 | 0.204 | 0.287 | 0.238 | 0.215 | 0.275 | 0.22 | 1.24 | 1.08 | 1.06 | 0.353 | 0.613
NCI-H2126 | 0.892 | 1.16 | 1.19 | 1.1 | 1.13 | 0.589 | 0.6 | 0.547 | 0.563 | 0.59 | 0.645 | 0.663 | 0.55 | 0.462 | 0.416 | 0.896 | 0.77 | 0.762 | 0.564 | 0.399
EPLC-272H | – | 0.704 | 0.635 | 0.569 | 0.698 | 0.35 | 0.352 | 0.305 | 0.343 | 0.354 | 0.36 | 0.364 | 0.317 | 0.281 | 0.23 | 1.31 | 1.01 | 0.937 | 0.592 | 0.365
PC-3 [JPC-3] | 0.945 | 0.936 | 0.923 | 0.991 | 1.04 | 0.849 | – | 0.861 | 0.79 | 0.79 | 0.87 | 0.783 | 0.878 | 0.786 | 0.655 | 0.796 | 0.787 | 0.879 | 0.742 | 0.509
NCI-H838 | 0.983 | 1.01 | 0.994 | 0.965 | 1.01 | 0.444 | 0.475 | 0.461 | 0.469 | 0.506 | 0.603 | 0.446 | 0.4 | 0.289 | 0.286 | 1.13 | 0.776 | 0.474 | 0.205 | 0.251
COR-L 105 | 0.76 | 1.29 | 0.981 | 0.862 | 0.903 | 0.375 | 0.653 | 0.591 | 0.637 | 0.729 | 0.578 | 0.629 | 0.598 | 0.395 | 0.326 | 0.754 | 0.759 | 1.02 | 0.323 | 0.271
NCI-H2405 | 0.755 | 0.776 | 0.746 | 0.767 | 0.746 | 0.605 | – | 0.702 | 0.703 | 0.647 | 0.803 | 0.76 | 0.687 | 0.429 | 0.352 | 0.727 | 0.935 | 0.831 | 0.391 | 0.25
NCI-H1395 | 0.978 | 0.943 | 0.899 | 0.999 | 1.07 | 0.745 | – | 0.664 | 0.699 | 0.767 | 0.601 | 0.69 | 0.667 | 0.505 | 0.447 | 0.834 | 1.03 | 0.999 | 0.821 | 0.631
NCI-H1915 | 1.06 | 1.11 | 1 | 0.977 | 1.1 | 0.278 | 0.303 | 0.29 | 0.27 | 0.279 | 0.291 | 0.259 | 0.266 | 0.285 | 0.251 | 0.783 | 0.759 | 0.773 | 0.781 | 0.484
SK-LU-1 | 0.542 | 0.58 | 0.612 | 0.515 | 0.51 | 0.518 | 0.568 | 0.565 | 0.406 | 0.604 | 0.523 | 0.72 | 0.6 | 0.44 | 0.388 | 1.14 | 0.627 | 0.707 | 0.673 | 0.319
